Results reported in patent US20160193216A1 (Nimbus Iris, Inc., priority 2012, published 2016).
pIC50: −log10 of the molar value. Where a name gives a salt, the structure may show the parent alone.

Target: T1, IRAK4 (Homo sapiens, UniProt Q9NWZ3)
T1 sequence (Q9NWZ3 1-460): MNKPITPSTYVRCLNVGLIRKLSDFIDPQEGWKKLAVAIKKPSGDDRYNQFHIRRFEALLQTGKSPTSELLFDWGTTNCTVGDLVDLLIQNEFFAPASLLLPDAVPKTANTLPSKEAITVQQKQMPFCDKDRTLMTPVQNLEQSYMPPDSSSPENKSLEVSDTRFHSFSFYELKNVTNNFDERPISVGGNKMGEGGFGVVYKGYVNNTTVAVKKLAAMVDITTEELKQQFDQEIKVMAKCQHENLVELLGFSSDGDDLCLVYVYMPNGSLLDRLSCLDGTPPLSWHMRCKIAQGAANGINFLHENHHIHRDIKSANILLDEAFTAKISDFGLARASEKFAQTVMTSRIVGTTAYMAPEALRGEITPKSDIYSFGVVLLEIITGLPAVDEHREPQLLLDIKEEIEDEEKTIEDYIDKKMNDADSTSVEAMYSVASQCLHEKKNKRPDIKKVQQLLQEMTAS
Experiment: IRAK-4 activity inhibition assay (Caliper)
Type: biochemical
Conditions: 37 μM ATP, 3.5 nM IRAK4
Description: A 1× kinase base buffer was prepared from 50 mM HEPES, pH 7.5 and 0.0015% Brij-35. A stop buffer was prepared from 100 mM HEPES, pH 7.5, 0.015% Brij-35, 0.2% Coating Reagent #3, and 50 mM EDTA.
Test compound was diluted to 50× of the final desired highest inhibitor concentration in reaction by 100% DMSO. 100 μl of this compound dilution was transferred to a well in a 96-well plate.
Test compound was serially diluted by transferring 30 μl to 60 μl of 100% DMSO in the next well and so forth for a total of 10 concentrations. 100 μl of 100% DMSO was added to two empty wells for no compound control and no enzyme control in the same 96-well plate.
A new 96-well plate was marked as intermediate plate. 5 μl of compound serial dilution was transferred from source plate to the corresponding wells of the intermediate plate. 45 μl of 1× kinase base buffer (KB buffer) was added to each well of the intermediate plate. The intermediate plate was placed for 10 min on a shaker.
5 μl of each well was transferred from the 96-well intermediate plate to a 384-well plate in duplicates. […] A2 of the 96-well plate is transferred to A3 and A4 of the 384-well plate, and so on.
IRAK4 and DTT in 1× kinase base buffer was added.
Assay plate already contained 5 μl of compound in 10% DMSO. Added 10 μl of 2.5× enzyme solution to each well of the 384-well assay plate, except no enzyme control wells. […] Added 10 μl of 1× kinase base buffer to no enzyme control wells in the assay plate. Incubated at room temperature for 10 min.
Added 10 μl of 2.5× peptide solution to each well of the 384-well assay plate. […] Incubated at 28° C. for 40 minutes. Added 25 μl of stop buffer to stop reaction. Collected data on Caliper.
Copied conversion % data from Caliper program. Converted conversion % values to percent inhibition values. Percent inhibition=(max−conversion %)/(max−min)*100, where “max” means the conversion % of DMSO control and “min” means the conversion % of no enzyme control.
The compound numbers correspond to the compound numbers in Table 1. […] “NA” stands for “not assayed.”

pIC50 | SMILES
> 5.30 | NC(=O)[C@H](O)C[C@H]1CCc2sc3ncnc(O[C@H]4CC[C@H](N5CCCCC5)CC4)c3c21 [Compound I-218, (R)-2-hydroxy-3-((R)-4-(((1r,4R)-4-(piperidin-1-yl)cyclohexyl)oxy)-6,7-dihydro-5H-cyclopenta[4,5]thieno[2,3-d]pyrimidin-5-yl)propanamide]
> 5.30 | OC[C@H]1CCc2sc3ncnc(N[C@H]4CC[C@H](N5CCOCC5)CC4)c3c2C1 [Compound I-210, [(12S)-3-[[4-(morpholin-4-yl)cyclohexyl]amino]-8-thia-4,6-diazatricyclo[7.4.0.0[2,7]]trideca-2,4,6-trien-12-yl]methanol]
> 5.30 | C=C[C@@H](O)C[C@H]1CCc2sc3ncnc(O[C@H]4CC[C@@](N)(CC)CC4)c3c21 [Compound I-126, (2S)-1-[(3R)-12-[(4-amino-4-ethylcyclohexyl)oxy]-7-thia-9,11-diazatricyclo[6.4.0.0[2,6]]dodeca-1(8),2(6),9,11-tetraen-3-yl]but-3-en-2-ol]
> 5.30 | CNC(=O)N1Cc2sc3ncnc(O[C@H]4CC[C@H](N5CCOCC5)CC4)c3c2C1 [Compound I-200, N-methyl-12-[[4-(morpholin-4-yl)cyclohexyl]oxy]-7-thia-4,9, 11-triazatricyclo[6.4.0.0[2,6]]dodeca-1(8),9, 11-triene-4-carboxamide]
> 5.30 | O=S(=O)(CCO)N1CCc2sc3ncnc(N[C@H]4CC[C@H](N5CCOCC5)CC4)c3c2C1 [Compound I-185, 2-(3-[[4-(morpholin-4-yl)cyclohexyl]amino]-8-thia-4,6,12-triazatricyclo[7.4.0.0[2,7]]trideca-1(9),2(7),3,5-tetraene-12-sulfonyl)ethan-1-ol]
> 5.30 | OC[C@H]1CCc2sc3ncnc(O[C@H]4CC[C@H](N5CCOCC5)CC4)c3c2C1 [Compound I-216, [(12S)-3-[[4-(morpholin-4-yl)cyclohexyl]oxy]-8-thia-4,6-diazatricyclo[7.4.0.0[2,7]]trideca-1(9),2(7),3,5-tetraen-12-yl]methanol]
> 5.30 | CN(C)[C@H]1CC[C@H](Oc2ncnc3sc4c(c23)CC(CC(N)=O)OC4)CC1 (stereo partly shown) [Compound I-221, 2-(3-[[4-(dimethylamino)cyclohexyl]oxy]-11-oxa-8-thia-4,6-diazatricyclo[7.4.0.0[2,7]]trideca-1(9),2(7),3,5-tetraen-12-yl)acetamide]

The next lines start with the molecule.

SMILES | pIC50
CN(C)[C@H]1CC[C@H](Oc2ncnc3sc4c(c23)C(C(=O)O)CC4)CC1 (stereo partly shown) [Compound I-8, 4-(((1r,4r)-4-(dimethylamino)cyclohexyl)oxy)-6,7-dihydro-5H-cyclopenta[4,5]thieno[2,3-d]pyrimidine-5-carboxylic acid] | < 4.30
NC(=O)CC[C@H]1CCc2sc3ncnc(O[C@H]4CC[C@H](N5CCOCC5)CC4)c3c21 [Compound I-84, 3-((S)-4-(((1r,4S)-4-morpholinocyclohexyl)oxy)-6,7-dihydro-5H-cyclopenta[4,5]thieno[2,3-d]pyrimidin-5-yl)propanamide] | > 5.30
CC[C@H](O)C[C@H]1CCc2sc3ncnc(O[C@H]4CC[C@H](N(C)CC(=O)N5CCCC5)CC4)c3c21 [Compound I-72, 2-(((1R,4r)-4-(((R)-5-((S)-2-hydroxybutyl)-6,7-dihydro-5H-cyclopenta[4,5]thieno[2,3-d]pyrimidin-4-yl)oxy)cyclohexyl)(methyl)amino)-1-(pyrrolidin-1-yl)ethanone] | > 5.30
CCS(=O)(=O)CC1CCc2sc3ncnc(O[C@H]4CC[C@H](N(C)C)CC4)c3c21 (stereo partly shown) [Compound I-47, 4-([3-[(ethanesulfonyl)methyl]-7-thia-9,11-diazatricyclo[6.4.0.0[2,6]]dodeca-1(12),2(6),8,10-tetraen-12-yl]oxy)-N,N-dimethylcyclohexan-1-amine] | > 5.30
CN(C)[C@H]1CC[C@H](Oc2ncnc3sc4c(c23)[C@@H](C[C@H](O)c2cc[nH]n2)CC4)CC1 [Compound I-96, (S)-2-((R)-4-(((1r,4R)-4-(dimethylamino)cyclohexyl)oxy)-6,7-dihydro-5H-cyclopenta[4,5]thieno[2,3-d]pyrimidin-5-yl)-1-(1H-pyrazol-3-yl)ethanol] | > 5.30
CN(C)[C@H]1CC[C@H](Oc2ncnc3sc4c(c23)C[C@@H](CCO)CC4)CC1 [Compound I-111, 2-[(12S)-3-[[4-(dimethylamino)cyclohexyl]oxy]-8-thia-4,6-diazatricyclo[7.4.0.0[2,7]]trideca-1(9),2(7),3,5-tetraen-12-yl]ethan-1-ol formate] | > 5.30
CC[C@H](O)C[C@H]1CCc2sc3ncnc(O[C@H]4CC[C@H](N5CCOCC5)CC4)c3c21 [Compound I-64, (S)-1-((R)-4-(((1r,4R)-4-morpholinocyclohexyl)oxy)-6,7-dihydro-5H-cyclopenta[4,5]thieno[2,3-d]pyrimidin-5-yl)butan-2-ol] | > 5.30
CN(C)[C@H]1CC[C@H](Nc2ncnc3sc4c(c23)C(C(=O)NCCO)CC4)CC1 (stereo partly shown) [Compound I-17, 12-[[4-(dimethylamino)cyclohexyl]amino]-N-(2-hydroxyethyl)-7-thia-9,11-diazatricyclo[6.4.0.0̂[2,6]]dodeca-1(12),2(6),8,10-tetraene-3-carboxamide] | > 5.30
CN(C)[C@H]1CC[C@H](Nc2ncnc3sc4c(c23)C(CC#N)CC4)CC1 (stereo partly shown) [Compound I-9] | > 5.30
CN(C)[C@H]1CC[C@H](Nc2ncnc3sc4c(c23)C(C(=O)NCc2cccnc2)CC4)CC1 (stereo partly shown) [Compound I-25, 12-[[4-(dimethylamino)cyclohexyl]amino]-N-(pyridin-3-ylmethyl)-7-thia-9,11-diazatricyclo[6.4.0.0̂[2,6]]dodeca-1(12),2(6),8,10-tetraene-3-carboxamide] | 4.30 to 4.70
CC[C@]1(N(C)C)CC[C@H](Oc2ncnc3sc4c(c23)[C@@H](CCO)CC4)CC1 [Compound I-91, 2-((R)-4-(((1r,4R)-4-(dimethylamino)-4-ethylcyclohexyl)oxy)-6,7-dihydro-5H-cyclopenta[4,5]thieno[2,3-d]pyrimidin-5-yl)ethanol] | > 5.30
CN(C)[C@H]1CC[C@H](Nc2ncnc3sc4c(c23)C(CC(=O)O)CC4)CC1 (stereo partly shown) [Compound I-18] | 4.70 to 5.30
C[C@@H](O)C[C@H]1CCc2sc3ncnc(O[C@H]4CC[C@H](N(C)C)CC4)c3c21 [Compound I-41, (2R)-1-[(3R)-12-[[4-(dimethylamino)cyclohexyl]oxy]-7-thia-9,11-diazatricyclo[6.4.0.0[2,6]]dodeca-1(8),2(6),9,11-tetraen-3-yl]propan-2-ol] | > 5.30
CO[C@@H](C[C@H]1CCc2sc3ncnc(O[C@H]4CC[C@H](N(C)C)CC4)c3c21)C(N)=O [Compound I-78, (2S)-3-[(3R)-12-[[4-(dimethylamino)cyclohexyl]oxy]-7-thia-9,11-diazatricyclo[6.4.0.0[2,6]]dodeca-1(8),2(6),9,11-tetraen-3-yl]-2-methoxypropanamide] | > 5.30
CC[C@H](O)C[C@H]1CCc2sc3ncnc(O[C@H]4CC[C@H](N(C)C)CC4)c3c21 [Compound I-107, (2S)-1-[(3R)-12-[[4-(dimethylamino)cyclohexyl]oxy]-7-thia-9,11-diazatricyclo[6.4.0.0[2,6]]dodeca-1(8),2(6),9,11-tetraen-3-yl]butan-2-ol] | > 5.30
